Laboratory results published in patent US8454934B2, “High molecular weight chelation structure” (Canadian Blood Services, priority 2006, dated 2013).

Columns and labels:
[1] = upon intravascular administration; cellular uptake and kidney clearance; cited from earlier work
mice = details: cited from earlier work
[2] = Solubility in water and plasma, by absorbance versus wavelength (FIG. 20A); type: physicochemical; details: absorbance plots FIG. 20A, HMW-ICL-670 was 20% (by weight) ICL-670
Description: FIGS. 20A and 20B are plots of absorbance of radiation in water versus wavelength of the radiation, for low molecular weight ICL670 (3 mg/ml) and the chelation structure of the present invention (denoted as HMW) dissolved in the water, in accordance with embodiments of the present invention. […] The measured absorbance increases with increasing concentration of the chelators/chelation structures dissolved in the water and is thus a measure of the solubility of the chelators/chelation structures in the water.

Row | solubility in water [2] | Structure (SMILES) | time to complete clearance from the vasculature [1] | LD50 (mice) [mg/kg]
1 |  | CC(=O)N(O)CCCCCNC(=O)CCC(=O)N(O)CCCCCNC(=O)CCC(=O)N(O)CCCCCN.CS(=O)(=O)O [DFO, N-[5-(3-[(5-aminopentyl)-hydroxycarbamoyl]-propionamido)pentyl]-3-([5-(N-hydroxyacetamido)-pentyl]-carbamoyl)-propionohydroxamic acid monomethane sulphonate] | approximately 20 minutes | ~250
2 | insoluble in water | O=C(O)c1ccc(-n2nc(-c3ccccc3O)nc2-c2ccccc2O)cc1 [ICL670, 4-[3,5-bis(2-hydroxyphenyl)-1,2,4-triazol-1-yl]-benzoic acid] |  | 
